Measured values published in ChEMBL document CHEMBL3745645, “Synthesis, in vitro antitumor activity, dihydrofolate reductase inhibition, DNA intercalation and structure-activity relationship studies of 1,3,5-triazine analogues” (Bioorg Med Chem Lett, 2016).
Calls of active or inactive are those of the source. The rule behind the calls is not given here.

What was measured:
Format in all cases: functional
A549 = experiment: Cytotoxicity against human A549 cells at 10 uM after 48 hrs by SRB assay; details: A549, 48 h, read-out: GI
786-0 = experiment: Cytotoxicity against human 786-0 cells at 10 uM after 48 hrs by SRB assay; details: 786-0, 48 h, read-out: GI
KM12 = experiment: Cytotoxicity against human KM12 cells at 10 uM after 48 hrs by SRB assay; details: KM12, 48 h, read-out: GI
MDA-MB-231 = experiment: Cytotoxicity against human MDA-MB-231 cells at 10 uM after 48 hrs by SRB assay; details: MDA-MB-231, 48 h, read-out: GI
[1] = Cytotoxicity against human HOP62 cells at 10 uM after 48 hrs by SRB assay; details: HOP-62, 48 h, read-out: GI
MCF7 = experiment: Cytotoxicity against human MCF7 cells at 10 uM after 48 hrs by SRB assay; details: MCF7, 48 h, read-out: GI
[2] = Cytotoxicity against human HCC2998 cells at 10 uM after 48 hrs by SRB assay; details: HCC 2998, 48 h, read-out: GI
[3] = Cytotoxicity against human UO31 cells at 10 uM after 48 hrs by SRB assay; details: UO-31, 48 h, read-out: GI
SNB-19 = experiment: Cytotoxicity against human SNB19 cells at 10 uM after 48 hrs by SRB assay
A498 = experiment: Cytotoxicity against human A498 cells at 10 uM after 48 hrs by SRB assay; details: A498, 48 h, read-out: GI
[4] = Cytotoxicity against human HCT15 cells at 10 uM after 48 hrs by SRB assay; details: HCT-15, 48 h, read-out: GI
SK-MEL-5 = experiment: Cytotoxicity against human SK-MEL-5 cells at 10 uM after 48 hrs by SRB assay; details: SK-MEL-5, 48 h, read-out: GI
[5] = Cytotoxicity against human SF295 cells at 10 uM after 48 hrs by SRB assay; details: SF-295, 48 h, read-out: GI
SR = experiment: Cytotoxicity against human SR cells at 10 uM after 48 hrs by SRB assay; details: read-out: GI
NCI-H522 = experiment: Cytotoxicity against human NCI-H522 cells at 10 uM after 48 hrs by SRB assay; details: NCI-H522, 48 h, read-out: GI
NCI/ADR-RES = experiment: Cytotoxicity against human NCI-ADR-RES cells at 10 uM after 48 hrs by SRB assay
[6] = Cytotoxicity against human SW620 cells at 10 uM after 48 hrs by SRB assay; details: SW-620, 48 h, read-out: GI
K562 = experiment: Cytotoxicity against human K562 cells at 10 uM after 48 hrs by SRB assay; details: K562, 48 h, read-out: GI
[7] = Cytotoxicity against human HL-60(TB) cells at 10 uM after 48 hrs by SRB assay; details: HL-60, 48 h, read-out: GI
HT-29 = experiment: Cytotoxicity against human HT-29 cells at 10 uM after 48 hrs by SRB assay; details: HT-29, 48 h, read-out: GI
[8] = Cytotoxicity against human SF268 cells at 10 uM after 48 hrs by SRB assay; details: SF-268, 48 h, read-out: GI
[9] = Cytotoxicity against human RXF393 cells at 10 uM after 48 hrs by SRB assay; details: RXF 393, 48 h, read-out: GI
CCRF-CEM = experiment: Cytotoxicity against human CCRF-CEM cells at 10 uM after 48 hrs by SRB assay; details: read-out: GI
SK-MEL-2 = experiment: Cytotoxicity against human SK-MEL-2 cells at 10 uM after 48 hrs by SRB assay
[10] = Cytotoxicity against human Hs 578T cells at 10 uM after 48 hrs by SRB assay; details: read-out: GI
M14 = experiment: Cytotoxicity against human M14 cells at 10 uM after 48 hrs by SRB assay
[11] = Cytotoxicity against human SNB75 cells at 10 uM after 48 hrs by SRB assay; details: SNB-75, 48 h, read-out: GI
ACHN = experiment: Cytotoxicity against human ACHN cells at 10 uM after 48 hrs by SRB assay; details: read-out: GI
TK-10 = experiment: Cytotoxicity against human TK10 cells at 10 uM after 48 hrs by SRB assay
[12] = Cytotoxicity against human Caki1 cells at 10 uM after 48 hrs by SRB assay; details: CAKI-1, 48 h, read-out: GI
NCI-H226 = experiment: Cytotoxicity against human NCI-H226 cells at 10 uM after 48 hrs by SRB assay; details: NCI-H226, 48 h, read-out: GI
[13] = Cytotoxicity against human HOP92 cells at 10 uM after 48 hrs by SRB assay; details: HOP-92, 48 h, read-out: GI
[14] = Cytotoxicity against human UACC62 cells at 10 uM after 48 hrs by SRB assay; details: UACC-62, 48 h, read-out: GI
SK-MEL-28 = experiment: Cytotoxicity against human SK-MEL-28 cells at 10 uM after 48 hrs by SRB assay
[15] = Cytotoxicity against human IGROV1 cells at 10 uM after 48 hrs by SRB assay; details: IGROV-1, 48 h, read-out: GI
[16] = Cytotoxicity against human OVCAR3 cells at 10 uM after 48 hrs by SRB assay; details: OVCAR-3, 48 h, read-out: GI
[17] = Cytotoxicity against human HCT116 cells at 10 uM after 48 hrs by SRB assay; details: HCT-116, 48 h, read-out: GI
BT-549 = experiment: Cytotoxicity against human BT549 cells at 10 uM after 48 hrs by SRB assay
T47D = experiment: Cytotoxicity against human T47D cells at 10 uM after 48 hrs by SRB assay
[18] = Cytotoxicity against human MOLT4 cells at 10 uM after 48 hrs by SRB assay; details: MOLT-4, 48 h, read-out: GI
COLO 205 = experiment: Cytotoxicity against human COLO205 cells at 10 uM after 48 hrs by SRB assay
[19] = Cytotoxicity against human UACC257 cells at 10 uM after 48 hrs by SRB assay; details: UACC-257, 48 h, read-out: GI
[20] = Cytotoxicity against human OVCAR5 cells at 10 uM after 48 hrs by SRB assay; details: OVCAR-5, 48 h, read-out: GI
MDA-MB-435 = experiment: Cytotoxicity against human MDA-MB-435 cells at 10 uM after 48 hrs by SRB assay; details: MDA-MB-435, 48 h, read-out: GI
SK-OV-3 = experiment: Cytotoxicity against human SKOV3 cells at 10 uM after 48 hrs by SRB assay
Malme-3M = experiment: Cytotoxicity against human MALME-3M cells at 10 uM after 48 hrs by SRB assay; details: read-out: GI
[21] = Cytotoxicity against human DU145 cells at 10 uM after 48 hrs by SRB assay; details: DU-145, 48 h, read-out: GI
[22] = Cytotoxicity against human SF539 cells at 10 uM after 48 hrs by SRB assay; details: SF-539, 48 h, read-out: GI
[23] = Cytotoxicity against human PC3 cells at 10 uM after 48 hrs by SRB assay; details: PC-3, 48 h, read-out: GI
MDA-MB-468 = experiment: Cytotoxicity against human MDA-MB-468 cells at 10 uM after 48 hrs by SRB assay; details: MDA-MB-468, 48 h, read-out: GI
[24] = Cytotoxicity against human OVCAR8 cells at 10 uM after 48 hrs by SRB assay; details: OVCAR-8, 48 h, read-out: GI
[25] = Cytotoxicity against human LOXIMVI cells at 10 uM after 48 hrs by SRB assay; details: LOX IMVI, read-out: GI
NCI-H460 = experiment: Cytotoxicity against human NCI-H460 cells at 10 uM after 48 hrs by SRB assay; details: NCI-H460, 48 h, read-out: GI
[26] = Cytotoxicity against human RPMI8226 cells at 10 uM after 48 hrs by SRB assay; details: RPMI-8226, 48 h, read-out: GI
[27] = Cytotoxicity against human OVCAR4 cells at 10 uM after 48 hrs by SRB assay; details: OVCAR-4, 48 h, read-out: GI
SN12C = experiment: Cytotoxicity against human SN12C cells at 10 uM after 48 hrs by SRB assay; details: read-out: GI

With `Cc1nc2cc(Nc3nc(Nc4ccc(O)cc4)nc(Nc4ccc(F)cc4)n3)ccc2n1Cc1ccccc1` the inhibition of growth at 10 µM (A549) was 22.2%, the inhibition of growth at 10 µM (786-0) was 6.04% and the inhibition of growth at 10 µM (KM12) was 17.6%. It also gave an inhibition of growth at 10 µM (MDA-MB-231) of 11.3%, an inhibition of growth at 10 µM [1] of 3.47% and an inhibition of growth at 10 µM (MCF7) of 16%. The inhibition of growth at 10 µM [2] was 4.67%, the inhibition of growth at 10 µM [3] was 6.02% and the “growth inhibition (GI)” value (SNB-19) was “inactive”. For the same compound, the inhibition of growth at 10 µM (A498) was 13.4%, the inhibition of growth at 10 µM [4] was 17.3% and the inhibition of growth at 10 µM (SK-MEL-5) was 5.6%. The inhibition of growth at 10 µM [5] was 5.35%, the inhibition of growth at 10 µM (SR) was 20.8% and the inhibition of growth at 10 µM (NCI-H522) was 15.1%. For the same compound, the “growth inhibition (GI)” value (NCI/ADR-RES) was “inactive”, the inhibition of growth at 10 µM [6] was 18.8% and the inhibition of growth at 10 µM (K562) was 21.3%. For the same compound, the inhibition of growth at 10 µM [7] was 6.96%, the inhibition of growth at 10 µM (HT-29) was 4.8% and the inhibition of growth at 10 µM [8] was 11.2%. The inhibition of growth at 10 µM [9] was 18.8%, the inhibition of growth at 10 µM (CCRF-CEM) was 8.15% and the “growth inhibition (GI)” value (SK-MEL-2) was “inactive”. For the same compound, the inhibition of growth at 10 µM [10] was 1.42%, the “growth inhibition (GI)” value (M14) was “inactive” and the inhibition of growth at 10 µM [11] was 15.1%. For the same compound, the inhibition of growth at 10 µM (ACHN) was 8.7%, the “growth inhibition (GI)” value (TK-10) was “inactive” and the inhibition of growth at 10 µM [12] was 4.53%. For the same compound, the inhibition of growth at 10 µM (NCI-H226) was 12.8%, the inhibition of growth at 10 µM [13] was 17.8% and the inhibition of growth at 10 µM [14] was 3.94%. The “growth inhibition (GI)” value (SK-MEL-28) was “inactive”, the inhibition of growth at 10 µM [15] was 2.23% and the inhibition of growth at 10 µM [16] was 8.38%. The inhibition of growth at 10 µM [17] was 10.6%, the “growth inhibition (GI)” value (BT-549) was “inactive” and the “growth inhibition (GI)” value (T47D) was “inactive”. For the same compound, the inhibition of growth at 10 µM [18] was 19.8%, the “growth inhibition (GI)” value (COLO 205) was “inactive” and the inhibition of growth at 10 µM [19] was 3.73%. The inhibition of growth at 10 µM [20] was 3.66%, the inhibition of growth at 10 µM (MDA-MB-435) was 4.26% and the “growth inhibition (GI)” value (SK-OV-3) was “inactive”. It also gave an inhibition of growth at 10 µM (Malme-3M) of 0.89%, an inhibition of growth at 10 µM [21] of 41.6% and an inhibition of growth at 10 µM [22] of 6.34%. The inhibition of growth at 10 µM [23] was 10.7%, the inhibition of growth at 10 µM (MDA-MB-468) was 13.4% and the inhibition of growth at 10 µM [24] was 22.2%. It also gave an inhibition of growth at 10 µM [25] of 3.79%, an inhibition of growth at 10 µM (NCI-H460) of 18.2% and an inhibition of growth at 10 µM [26] of 26.7%. For the same compound, the inhibition of growth at 10 µM [27] was 12.8% and the inhibition of growth at 10 µM (SN12C) was 2.54%.
